Measured values published in ChEMBL document CHEMBL4689842, “EUbOPEN Chemogenomics Library wave 1” (2021).

Tests used:
Assay type in all cases: toxicity, cell-based
HEK-293T = test: Incucyte cell viability with HEK293T; settings: human, 10 µM, compound concentration 10 uM
U2OS = test: Incucyte cell viability with U2OS; settings: human, 10 µM, compound concentration 10 uM
Fibroblast = test: Incucyte cell viability with human fibroblast; settings: 10 µM, compound concentration 10 uM
[1] = 0 h, replicate number 2, timepoint 0 hours
[2] = 24 h, replicate number 1, timepoint 24 hours
[3] = 6 h, replicate number 2, timepoint 6 hours
[4] = 12 h, replicate number 1, timepoint 12 hours
[5] = 18 h, replicate number 1, timepoint 18 hours
[6] = 0 h, replicate number 1, timepoint 0 hours
[7] = 6 h, replicate number 1, timepoint 6 hours
[8] = 12 h, replicate number 2, timepoint 12 hours
[9] = 18 h, replicate number 2, timepoint 18 hours
[10] = 24 h, replicate number 2, timepoint 24 hours
Note: filed as whole numbers so only -1 and 0 and 1 occur.

Structure (SMILES)	Growth Rate (HEK-293T; [1])	Growth Rate (HEK-293T; [2])	Growth Rate (U2OS; [3])	Growth Rate (U2OS; [4])	Growth Rate (U2OS; [5])	Growth Rate (U2OS; [2])	Growth Rate (Fibroblast; [6])	Growth Rate (Fibroblast; [7])	Growth Rate (Fibroblast; [4])	Growth Rate (Fibroblast; [5])	Growth Rate (Fibroblast; [2])	Growth Rate (HEK-293T; [7])	Growth Rate (U2OS; [6])	Growth Rate (U2OS; [7])	Growth Rate (U2OS; [10])	Growth Rate (Fibroblast; [1])	Growth Rate (Fibroblast; [9])	Growth Rate (HEK-293T; [6])	Growth Rate (HEK-293T; [4])	Growth Rate (HEK-293T; [5])	other results
O=C(c1ccc(C(=O)N2CCC(N3CCCC3)CC2)c(Nc2ccccc2)c1)N1CCC(N2CCCC2)CC1	0	1	1	1	1	1	0	1	1	1	1										
COc1cc(OC)cc(-c2noc(N3CCN(C)C4(CCN(c5ccnc(C)c5)CC4)C3)n2)c1		1	1	0	0	0		0	1	1	0	0	0	0	1	0	0				Growth Rate (HEK-293T; [8]): 1; Growth Rate (U2OS; [8]): 1; Growth Rate (U2OS; [9]): 1; Growth Rate (Fibroblast; [3]): 1; Growth Rate (Fibroblast; [8]): 0
NC(CCP(=O)(O)O)C(=O)O (racemic)		1	0	1	1	1	0				1	1	0				1	0	1	1	
CN(C)[C@H]1CCN(c2cc(-c3ccccc3)nc3ccnn23)C1 [(S)-ZINC-3573]	0	0		0	0	0	0	0	0	0	1	0		0	1	1		1	0	0	Growth Rate (U2OS; [9]): 1
CCC(=N\O)/C(C)=C/c1ccc(F)c(C)c1 [A-226]	0	0		1	0	0	0	0	0	0	1	0	0	0	1		1		0	0	Growth Rate (U2OS; [1]): 1; Growth Rate (U2OS; [9]): 1
O=C(NS(=O)(=O)c1ccc(NCC2CCOCC2)c([N+](=O)[O-])c1)c1ccc(N2CCN(Cc3ccc(C(F)(F)F)cc3-c3ccc(Cl)cc3)CC2)cc1Oc1cnc2[nH]ccc2c1 [A-1210227]				1	0	1	0	1	1	1	1	0	0	0	0			0			Growth Rate (HEK-293T; [10]): 1; Growth Rate (U2OS; [8]): 0
CO[C@H]1CC[C@H](CNc2ccc(S(=O)(=O)NC(=O)c3ccc(N4CCN(CC5=C(c6ccc(Cl)cc6)CC(C)(C)CC5)CC4)cc3Oc3cnc4[nH]ccc4c3)cc2[N+](=O)[O-])CC1 [A-1211212]		1		0	0	0	0	0	0	0	0		0	1	1			0		1	Growth Rate (HEK-293T; [3]): 1; Growth Rate (HEK-293T; [8]): 1; Growth Rate (HEK-293T; [10]): 0; Growth Rate (U2OS; [8]): 1
C[C@]12CCC(=O)C=C1CC[C@@H]1[C@@H]2[C@@H](O)C[C@]2(C=O)[C@@H](C(=O)CO)CC[C@@H]12 [ALDOSTERONE]		1	1	1	1	1	0	0	1	1	1		0			1	0	0	1	1	Growth Rate (HEK-293T; [3]): 1; Growth Rate (HEK-293T; [8]): 0; Growth Rate (Fibroblast; [8]): 0
Cc1nc(NC(=O)N2CCC[C@H]2C(N)=O)sc1-c1ccnc(C(C)(C)C(F)(F)F)c1 [ALPELISIB]		1		1	0	0	1		1	1	1	0	1	1	1	0	0			1	Growth Rate (HEK-293T; [8]): 0; Growth Rate (U2OS; [1]): 0; Growth Rate (U2OS; [9]): 1; Growth Rate (Fibroblast; [3]): 1; Growth Rate (Fibroblast; [8]): 0; Growth Rate (Fibroblast; [10]): 0
CC(C)C[C@H](CO)Nc1nc(S[C@@H](C)c2ccccc2)nc2nc(N)sc12 [AZD-8797]	0	0		0	0	0	1	0	0	0	0	0		0		0	1	1	0	0	Growth Rate (HEK-293T; [3]): 1; Growth Rate (HEK-293T; [8]): 1; Growth Rate (Fibroblast; [8]): 1; Growth Rate (Fibroblast; [10]): 1
Cc1c(NC(=O)c2cc(C(N)=O)nc3cc(F)ccc23)c(C(F)(F)F)nn1Cc1ccc(C(C)(C)C)cc1 [BAY-588]		0		1	0	1	0	0	0	0	0	0						0	0	0	Growth Rate (U2OS; [1]): 0; Growth Rate (U2OS; [9]): 1
CC(=O)C1=C(C)N(c2cccc(C(F)(F)F)c2)C(=O)N[C@@H]1c1ccc(C#N)nc1 [BAY-678]	1	1		0	0	0	1	1	0	0	0		0	0		0		0		1	Growth Rate (U2OS; [8]): 1; Growth Rate (Fibroblast; [3]): 0
Cc1c(NC(=O)c2cc(C(N)=O)nc3cc(F)ccc23)c(C(F)(F)F)nn1Cc1ccc(C#N)cc1 [BAY-876]	0	0	0	0	0	0	0	0	0	0	0	0	1	1					0	0	Growth Rate (U2OS; [1]): 0
